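These data come from cells grown in 96-well plates and exposed to compound for 48 hours at five concentrations. GI50 is the concentration that inhibits growth by half. TGI denotes the concentration required for complete inhibition of growth.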
Experiments:
Assay in all cases: NCI anticancer screen, dose series, 48 h
SF-268 CNS = test system: SF-268 CNS
OVCAR-8 ovarian = test system: OVCAR-8 ovarian
SF-295 CNS = test system: SF-295 CNS
OVCAR-4 ovarian = test system: OVCAR-4 ovarian
HT29 colon = test system: HT29 colon
BT-549 breast = test system: BT-549 breast
CAKI-1 renal = test system: CAKI-1 renal
NCI-H460 lung = test system: NCI-H460 lung
SK-MEL-28 melanoma = test system: SK-MEL-28 melanoma
PC-3 prostate = test system: PC-3 prostate
SK-MEL-2 melanoma = test system: SK-MEL-2 melanoma
786-0 renal = test system: 786-0 renal
HS 578T breast = test system: HS 578T breast
HCT-15 colon = test system: HCT-15 colon
OVCAR-5 ovarian = test system: OVCAR-5 ovarian
LOX IMVI melanoma = test system: LOX IMVI melanoma
SK-OV-3 ovarian = test system: SK-OV-3 ovarian
NCI-H226 lung = test system: NCI-H226 lung
HCT-116 colon = test system: HCT-116 colon
SW-620 colon = test system: SW-620 colon
OVCAR-3 ovarian = test system: OVCAR-3 ovarian
HL-60(TB) leukemia = test system: HL-60(TB) leukemia
NCI-H23 lung = test system: NCI-H23 lung
K-562 leukemia = test system: K-562 leukemia
MCF7 breast = test system: MCF7 breast
UACC-257 melanoma = test system: UACC-257 melanoma
UO-31 renal = test system: UO-31 renal
KM12 colon = test system: KM12 colon
A498 renal = test system: A498 renal
T-47D breast = test system: T-47D breast
NCI-H522 lung = test system: NCI-H522 lung
SK-MEL-5 melanoma = test system: SK-MEL-5 melanoma
TK-10 renal = test system: TK-10 renal
MDA-MB-231 breast = test system: MDA-MB-231 breast
SNB-19 CNS = test system: SNB-19 CNS
UACC-62 melanoma = test system: UACC-62 melanoma
MDA-MB-435 = test system: MDA-MB-435
HOP-62 NSCLC = test system: HOP-62 NSCLC
SNB-75 CNS = test system: SNB-75 CNS
MOLT-4 leukemia = test system: MOLT-4 leukemia
HCC-2998 colon = test system: HCC-2998 colon
CCRF-CEM leukemia = test system: CCRF-CEM leukemia
HOP-92 NSCLC = test system: HOP-92 NSCLC
NCI/ADR-RES ovarian = test system: NCI/ADR-RES ovarian
M14 melanoma = test system: M14 melanoma
SN12C renal = test system: SN12C renal
A549 NSCLC = test system: A549 NSCLC
IGROV1 ovarian = test system: IGROV1 ovarian
SF-539 CNS = test system: SF-539 CNS
SR leukemia = test system: SR leukemia
U251 CNS = test system: U251 CNS
ACHN renal = test system: ACHN renal
RPMI-8226 leukemia = test system: RPMI-8226 leukemia
COLO 205 colon = test system: COLO 205 colon
MALME-3M melanoma = test system: MALME-3M melanoma
DU-145 prostate = test system: DU-145 prostate

CN(C)CCCNCc1ccc(-c2ccc(F)c(Cl)c2)o1
GI50 (SF-268 CNS): 12.1 µM | TGI (SF-268 CNS): 24.8 µM | GI50 (OVCAR-8 ovarian): 16.2 µM | TGI (OVCAR-8 ovarian): 36.5 µM | GI50 (SF-295 CNS): 14.3 µM | TGI (SF-295 CNS): 31.2 µM | GI50 (OVCAR-4 ovarian): 13 µM | TGI (OVCAR-4 ovarian): 35.8 µM | GI50 (HT29 colon): 6.18 µM | TGI (HT29 colon): 20.4 µM | GI50 (BT-549 breast): 11.8 µM | TGI (BT-549 breast): 26 µM | GI50 (CAKI-1 renal): 12.6 µM | TGI (CAKI-1 renal): 27.3 µM | GI50 (NCI-H460 lung): 14.3 µM | TGI (NCI-H460 lung): 29.8 µM | GI50 (SK-MEL-28 melanoma): 10.2 µM | TGI (SK-MEL-28 melanoma): 22.1 µM | GI50 (PC-3 prostate): 12.2 µM | TGI (PC-3 prostate): 26.5 µM | GI50 (SK-MEL-2 melanoma): 15.9 µM | TGI (SK-MEL-2 melanoma): 31.2 µM | GI50 (786-0 renal): 10.8 µM | TGI (786-0 renal): 23.7 µM | GI50 (HS 578T breast): 10.3 µM | TGI (HS 578T breast): 26.8 µM | GI50 (HCT-15 colon): 12.2 µM | TGI (HCT-15 colon): 32.4 µM | GI50 (OVCAR-5 ovarian): 15.5 µM | TGI (OVCAR-5 ovarian): 33.6 µM | GI50 (LOX IMVI melanoma): 5.23 µM | TGI (LOX IMVI melanoma): 18.2 µM | GI50 (SK-OV-3 ovarian): 16.9 µM | TGI (SK-OV-3 ovarian): 31.1 µM | GI50 (NCI-H226 lung): 16.8 µM | TGI (NCI-H226 lung): 35 µM | GI50 (HCT-116 colon): 8.33 µM | TGI (HCT-116 colon): 25 µM | GI50 (SW-620 colon): 14 µM | TGI (SW-620 colon): 30.3 µM | GI50 (OVCAR-3 ovarian): 15.4 µM | TGI (OVCAR-3 ovarian): 29.8 µM | GI50 (HL-60(TB) leukemia): 14.1 µM | TGI (HL-60(TB) leukemia): 30.7 µM | GI50 (NCI-H23 lung): 14.7 µM | TGI (NCI-H23 lung): 31.5 µM | GI50 (K-562 leukemia): 3.06 µM | TGI (K-562 leukemia): 10.2 µM | GI50 (MCF7 breast): 10.1 µM | TGI (MCF7 breast): 23.4 µM | GI50 (UACC-257 melanoma): 3.81 µM | TGI (UACC-257 melanoma): 13.8 µM | GI50 (UO-31 renal): 12.3 µM | TGI (UO-31 renal): 26.9 µM | GI50 (KM12 colon): 14.5 µM | TGI (KM12 colon): 29.2 µM | GI50 (A498 renal): 3.22 µM | TGI (A498 renal): 18.7 µM | GI50 (T-47D breast): 11.8 µM | TGI (T-47D breast): 28.3 µM | GI50 (NCI-H522 lung): 13.6 µM | TGI (NCI-H522 lung): 30 µM | GI50 (SK-MEL-5 melanoma): 3.69 µM | TGI (SK-MEL-5 melanoma): 13.9 µM | GI50 (TK-10 renal): 16.3 µM | TGI (TK-10 renal): 31.5 µM | GI50 (MDA-MB-231 breast): 9.89 µM | TGI (MDA-MB-231 breast): 22.3 µM | GI50 (SNB-19 CNS): 15.3 µM | TGI (SNB-19 CNS): 32.8 µM | GI50 (UACC-62 melanoma): 1.88 µM | TGI (UACC-62 melanoma): 3.79 µM | GI50 (MDA-MB-435): 5.58 µM | TGI (MDA-MB-435): 20.5 µM | GI50 (HOP-62 NSCLC): 14.5 µM | TGI (HOP-62 NSCLC): 28.2 µM | GI50 (SNB-75 CNS): 1.23 µM | TGI (SNB-75 CNS): 18.1 µM | GI50 (MOLT-4 leukemia): 11.5 µM | TGI (MOLT-4 leukemia): 28 µM | GI50 (HCC-2998 colon): 13 µM | TGI (HCC-2998 colon): 25.9 µM | GI50 (CCRF-CEM leukemia): 9.71 µM | TGI (CCRF-CEM leukemia): 26.3 µM | GI50 (HOP-92 NSCLC): 3.06 µM | TGI (HOP-92 NSCLC): 20 µM | GI50 (NCI/ADR-RES ovarian): 15.7 µM | TGI (NCI/ADR-RES ovarian): 33.4 µM | GI50 (M14 melanoma): 7.2 µM | TGI (M14 melanoma): 22 µM | GI50 (SN12C renal): 12.1 µM | TGI (SN12C renal): 26.6 µM | GI50 (A549 NSCLC): 16.1 µM | TGI (A549 NSCLC): 31.8 µM | GI50 (IGROV1 ovarian): 13.5 µM | TGI (IGROV1 ovarian): 32.2 µM | GI50 (SF-539 CNS): 12.9 µM | TGI (SF-539 CNS): 27.9 µM | GI50 (SR leukemia): 2.96 µM | TGI (SR leukemia): 8.37 µM | GI50 (U251 CNS): 14.4 µM | TGI (U251 CNS): 30.7 µM | GI50 (ACHN renal): 15.9 µM | TGI (ACHN renal): 32.7 µM | GI50 (RPMI-8226 leukemia): 10.7 µM | TGI (RPMI-8226 leukemia): 29.9 µM | GI50 (COLO 205 colon): 4.52 µM | TGI (COLO 205 colon): 15.5 µM | GI50 (MALME-3M melanoma): 16 µM | TGI (MALME-3M melanoma): 33.5 µM | GI50 (DU-145 prostate): 16.6 µM | TGI (DU-145 prostate): 30.6 µM

Source: PubChem BioAssay (NCI)
